Results: paper PMC8896685 (PLoS ONE, 2022)
Numbered stars: 1 amine (or outer) side, 2 acyl side, 3 side chain; on linkers, the order of the positions; unused ones are H or OH. Square brackets hold non-standard residues; d marks the D form. Side chains are listed from the residue outwards. Peptide text beside a SMILES is read from it. * marks the point of attachment. C18 diacid = O=C(O)CCCCCCCCCCCCCCCCC(=O)*; γGlu = O=C(O)[C@H](CCC(=O)[*:2])N[*:1]; Desaminohistidyl = O=C(CCc1c[nH]cn1)*; AEEA = NCCOCCOCC(=O)O; Aib = CC(C)(N)C(=O)O

Experiments:
[1] = tested on: DIO mice; test: Subchronic effect on body weight, body composition and food intake in DIO mice; format: in vivo, mouse
Source text: Male C57Bl/6J mice were purchased from Jackson Lab (Bar Harbour, ME) or Taconic, (Denmark). Male Sprague Dawley rats were purchased from Taconic (Denmark). Lean animals were fed regular chow diet (Altromin 1324, Brogaarden, Denmark). Obese animals were fed a high-fat diet, 45% kcal from fat (D12492, Research Diets, New Brunswick, NJ) from the age of 4–6 weeks in order to obtain a diet induced obese (DIO) phenotype. Animals were housed under temperature and humidity-controlled conditions in a 12:12 hr light:dark cycle (lights on at 6 a.m.). Rats were housed three per cage during high fat feeding and were single housed five weeks prior to study. Mice were single housed, two per cage, with a partitioning wall where possible. All animals had ad libitum access to diet and water, except when fasted prior to experimental procedures. Animals were acclimatized to study conditions (energy expenditure cages, daily mock handling etc) at least one week prior to first dose. […] At the time of study, animals were 20–30 weeks old with a body weight of 45–50 g (DIO mice) or approximately 600 g (DIO rats).
DIO mice received s.c. injections once daily for 4–5 weeks. Animals were dosed at different times of day to allow for assessment of glucose tolerance and other metabolic parameters at same time of day but at different time points in relation to dosing. […] Body composition was assessed in conscious animals by Magnetic Resonance (MR) scanning prior to initiation of treatment and at the end of the treatment period. Steady-state plasma parameters were assessed in non-fasted animals. Additional DIO mice (n = 4) were included for verification of 24-h peptide exposure in steady state. The mice received s.c. doses daily for 2 weeks (13 days) with 3 nmol/kg NN1177; 5 nmol/kg NN1151 or 5 nmol/kg NN1359, where after plasma sampled after t = 5 h (NN1177) or 6 h (NN1151, NN1359), 10 h (all co-agonists) and 24 h (all co-agonists) post-dosing was analysed for exposure.
Analogues were tested for subchronic effect in two different set-ups. […] The Cmax and Cmin animals were included in separate treatment groups and evaluated head-to-head for glucose tolerance and additional metabolic parameters at the end of the treatment period. […] IPGTT was performed as described above, but additionally blood was sampled from vena facialis of conscious animals at t = 210 min relative to the administration of glucose for exposure analysis.
IPGTT was performed as described above.
All in vivo data are presented as mean ±SEM. […] For the comparison of NN1177, NN1151 and NN1359 on glucose tolerance, vehicle-subtracted values were used to enable comparison across studies.

[2] = target: T1, Rat GLP-1R (Rattus norvegicus, UniProt P32301); test: Receptor binding, SPA competitive binding assay; conditions: SPA competitive binding on BHK cell membranes, [125I]-GLP-1(7–36)-NH2 tracer, 1% species specific plasma, 2 h 30°C; value (95% CI)
T1 construct: a plasmid encoding either the glucagon receptor or the GLP-1 receptor from the relevant species; expressed in transfected cells
T1 sequence (P32301 22-463): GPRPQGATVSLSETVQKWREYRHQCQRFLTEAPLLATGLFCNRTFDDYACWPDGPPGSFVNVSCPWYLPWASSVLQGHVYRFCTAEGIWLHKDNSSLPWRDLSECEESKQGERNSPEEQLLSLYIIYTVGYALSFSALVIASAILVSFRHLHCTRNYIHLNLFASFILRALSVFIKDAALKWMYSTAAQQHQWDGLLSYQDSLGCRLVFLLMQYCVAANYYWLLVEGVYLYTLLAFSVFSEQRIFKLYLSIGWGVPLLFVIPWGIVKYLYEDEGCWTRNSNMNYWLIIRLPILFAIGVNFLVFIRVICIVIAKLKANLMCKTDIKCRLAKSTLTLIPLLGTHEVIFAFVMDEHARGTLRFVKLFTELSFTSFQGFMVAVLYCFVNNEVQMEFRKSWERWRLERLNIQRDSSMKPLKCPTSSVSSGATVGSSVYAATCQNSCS
Description: (§1) The binding assay was performed on cell membranes in the presence of 1% (v/v) species-specific heparin-treated pooled plasma (Bioreclamation IVT, Westbury, NY) diluted in assay buffer (50 mM HEPES supplemented with 5 mM EGTA, 5 mM MgCl2, and 0.005% (v/v) Tween 20, pH7.4). […] Cells stably expressing an individual receptor of interest were grown at 5% CO2, 37°C in DMEM (supplemented with 10% FCS, 0.5 mg/ml G418 and 0.3 mg/ml hygromycin). Membrane preparations were made from cells harvested at approximately 80% confluence, washed and homogenized in 20 mM HEPES with 0.1 mM EDTA, pH 7.4. Protein concentration was determined, and the membranes were stored at -80°C until use. The membrane binding assay was performed in a 96-well OptiPlate (PerkinElmer) in a total volume of 200 μl. Test compounds were dissolved in 80% DMSO and further diluted in assay buffer. 50 μl of diluted plasma was added to the assay plate wells followed by addition of test compounds (25 μl), cell membranes (50 μl, 0.06 mg/ml), SPA beads (20 mg/ml in assay buffer) and radioligand (60,000 cpm/well, corresponding to 0.06 nM; 2200 Ci/mmol. Each assay plate was incubated for 2 h at 30°C, centrifuged at 1500 rpm for 10 minutes and counted in a TopCount NXT instrument (PerkinElmer).
(§2) For the receptor binding assays, logIC50 values were calculated using non-linear regression analysis. The error estimation was reported as the 95% confidence interval. […] The calculations were performed in GraphPad Prism 6.4 (GraphPad, San Diego, CA) and error estimation was expressed as the 95% confidence interval. […] Averages, error estimation, ratios and plasma shifts were all calculated on logIC50 or logEC50 values and transformed to the anti-log values for reporting purposes.

[3] = target: Human GLP-1R (Homo sapiens, UniProt P43220); test: Receptor binding, SPA competitive binding assay; conditions: SPA competitive binding on BHK cell membranes, [125I]-GLP-1(7–36)-NH2 tracer, 1% species specific plasma, 2 h 30°C; value (95% CI)
Chain of Human GLP-1R (P43220 24-463): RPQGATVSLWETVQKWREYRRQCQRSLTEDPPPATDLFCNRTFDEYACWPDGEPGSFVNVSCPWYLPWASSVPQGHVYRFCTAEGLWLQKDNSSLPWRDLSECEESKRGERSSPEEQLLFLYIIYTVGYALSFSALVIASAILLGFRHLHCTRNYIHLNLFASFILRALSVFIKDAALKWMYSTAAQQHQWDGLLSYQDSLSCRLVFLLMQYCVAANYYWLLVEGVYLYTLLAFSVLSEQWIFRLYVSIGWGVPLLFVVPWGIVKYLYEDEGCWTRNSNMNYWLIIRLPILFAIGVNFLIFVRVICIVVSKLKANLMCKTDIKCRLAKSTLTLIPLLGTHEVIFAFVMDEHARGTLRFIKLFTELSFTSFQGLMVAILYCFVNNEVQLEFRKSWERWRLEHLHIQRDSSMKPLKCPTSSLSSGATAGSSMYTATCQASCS
Description: as §1, §2

[4] = target: T2, Human GCGR (Homo sapiens, UniProt P47871); test: Receptor binding, SPA competitive binding assay; conditions: SPA competitive binding on BHK cell membranes, [125I]-glucagon tracer, 1% species specific plasma, 2 h 30°C; value (95% CI)
T2 construct: a plasmid encoding either the glucagon receptor or the GLP-1 receptor from the relevant species; expressed in transfected cells
T2 sequence (P47871 26-477): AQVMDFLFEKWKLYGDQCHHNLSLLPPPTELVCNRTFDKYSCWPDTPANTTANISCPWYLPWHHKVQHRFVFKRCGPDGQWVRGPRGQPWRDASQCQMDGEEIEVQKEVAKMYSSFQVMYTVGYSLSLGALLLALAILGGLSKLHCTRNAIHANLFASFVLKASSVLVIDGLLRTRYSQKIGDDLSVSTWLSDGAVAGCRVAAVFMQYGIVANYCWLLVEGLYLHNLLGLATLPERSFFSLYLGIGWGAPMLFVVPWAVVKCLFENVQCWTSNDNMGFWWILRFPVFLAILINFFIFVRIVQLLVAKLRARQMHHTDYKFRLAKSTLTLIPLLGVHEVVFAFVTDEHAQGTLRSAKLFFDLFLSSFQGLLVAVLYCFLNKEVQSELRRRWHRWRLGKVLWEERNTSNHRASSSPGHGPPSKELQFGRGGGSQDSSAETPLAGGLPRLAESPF
Description: as §1, §2

[5] = target: T3, Rat GCGR (Rattus norvegicus, UniProt P30082); test: Receptor binding, SPA competitive binding assay; conditions: SPA competitive binding on BHK cell membranes, [125I]-glucagon tracer, 1% species specific plasma, 2 h 30°C; value (95% CI)
T3 construct: a plasmid encoding either the glucagon receptor or the GLP-1 receptor from the relevant species; expressed in transfected cells
T3 sequence (P30082 27-485): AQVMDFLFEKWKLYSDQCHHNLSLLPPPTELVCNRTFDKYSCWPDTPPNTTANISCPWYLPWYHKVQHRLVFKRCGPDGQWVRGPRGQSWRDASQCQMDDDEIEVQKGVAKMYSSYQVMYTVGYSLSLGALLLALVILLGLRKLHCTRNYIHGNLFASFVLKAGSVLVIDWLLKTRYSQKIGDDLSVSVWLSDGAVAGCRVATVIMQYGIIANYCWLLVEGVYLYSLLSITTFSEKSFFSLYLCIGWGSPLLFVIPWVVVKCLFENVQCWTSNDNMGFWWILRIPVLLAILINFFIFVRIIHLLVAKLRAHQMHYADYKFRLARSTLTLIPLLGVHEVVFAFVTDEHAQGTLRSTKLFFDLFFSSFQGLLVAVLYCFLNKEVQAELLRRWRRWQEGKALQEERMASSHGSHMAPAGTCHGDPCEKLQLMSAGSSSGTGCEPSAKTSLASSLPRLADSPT
Description: as §1, §2

IC50 [2] [nM]	IC50 [3] [nM]	IC50 [4] [nM]	IC50 [5] [nM]	SMILES	Body weight reduction ([1]; 5 nmol/kg s.c. once daily, 4–5 weeks, p<0.001)	Body weight loss ([1]; 1–30 nmol/kg s.c. once daily, 4 weeks, plateau during last weeks)
–	–	–	–	CC(C)C[C@H](NC(=O)[C@H](CC(C)C)NC(=O)[C@H](Cc1c[nH]c2ccccc12)NC(=O)[C@H](CCC(N)=O)NC(=O)[C@@H](NC(=O)[C@H](Cc1ccccc1)NC(=O)[C@H](CCC(=O)O)NC(=O)[C@H](CCCNC(=N)N)NC(=O)[C@H](C)NC(=O)[C@H](C)NC(=O)[C@H](CCCNC(=N)N)NC(=O)[C@H](CO)NC(=O)[C@H](CC(=O)O)NC(=O)[C@H](CC(C)C)NC(=O)[C@H](Cc1ccc(O)cc1)NC(=O)[C@H](CCCCN)NC(=O)[C@H](CO)NC(=O)[C@H](CC(C)C)NC(=O)[C@H](CC(=O)O)NC(=O)[C@H](CO)NC(=O)[C@@H](NC(=O)[C@H](Cc1ccccc1)NC(=O)[C@@H](NC(=O)CNC(=O)[C@H](CCC(=O)O)NC(=O)C(C)(C)NC(=O)[C@@H](N)Cc1c[nH]cn1)[C@@H](C)O)[C@@H](C)O)C(C)C)C(=O)N[C@@H](CC(N)=O)C(=O)N[C@@H](CCCCNC(=O)CC[C@H](NC(=O)CC[C@H](NC(=O)COCCOCCNC(=O)COCCOCCNC(=O)CC[C@H](NC(=O)CCCCCCCCCCCCCCCCC(=O)O)C(=O)O)C(=O)O)C(=O)O)C(N)=O [GLP-1 reference] (H-H[Aib]EGTFTSDLSKYLDSRAAREFVQWLLNK([γGlu-γGlu-AEEA-AEEA-γGlu-C18 diacid])-NH2)	10%-17%	–
2.06	0.84	7.54	6.29	CC[C@H](C)[C@H](NC(=O)[C@H](Cc1ccccc1)NC(=O)[C@H](CCC(=O)O)NC(=O)[C@H](CCCNC(=N)N)NC(=O)[C@H](C)NC(=O)[C@H](C)NC(=O)[C@H](CCC(N)=O)NC(=O)[C@H](CCC(=O)O)NC(=O)[C@H](CCC(=O)O)NC(=O)[C@H](CC(C)C)NC(=O)[C@H](Cc1ccc(O)cc1)NC(=O)[C@H](CCCCN)NC(=O)[C@H](CO)NC(=O)[C@@H](NC(=O)[C@H](CC(=O)O)NC(=O)[C@H](CO)NC(=O)[C@@H](NC(=O)[C@H](Cc1ccccc1)NC(=O)[C@@H](NC(=O)CNC(=O)[C@H](Cc1c[nH]cn1)NC(=O)C(C)(C)NC(=O)CCc1c[nH]cn1)[C@@H](C)O)[C@@H](C)O)C(C)C)C(=O)N[C@@H](C)C(=O)N[C@@H](Cc1c[nH]c2ccccc12)C(=O)N[C@@H](CC(C)C)C(=O)N[C@@H](CC(C)C)C(=O)N[C@@H](CCCCNC(=O)COCCOCCNC(=O)COCCOCCNC(=O)CC[C@H](NC(=O)CC[C@H](NC(=O)CCCCCCCCCCCCCCCCC(=O)O)C(=O)O)C(=O)O)C(=O)N[C@H](C(N)=O)[C@@H](C)O [NN1359] (Desaminohistidyl-[Aib]HGTFTSDVSKYLEEQAAREFIAWLLK([AEEA-AEEA-γGlu-γGlu-C18 diacid])T-NH2)	–	10–30%
